From patent US12384770B2, “Heterocyclic compound” (Takeda Pharmaceutical Company Limited, priority 2019, dated 2025)

Biological target: T1, HDAC6 enzyme (Homo sapiens, UniProt Q9UBN7)
T1 construct: HDAC6 enzyme prepared by transducing full length HDAC6 gene into Sf-9 insect cells; GST; purchased SignalChem; host or cells: Sf-9 insect cells
T1 sequence (Q9UBN7 1-1215): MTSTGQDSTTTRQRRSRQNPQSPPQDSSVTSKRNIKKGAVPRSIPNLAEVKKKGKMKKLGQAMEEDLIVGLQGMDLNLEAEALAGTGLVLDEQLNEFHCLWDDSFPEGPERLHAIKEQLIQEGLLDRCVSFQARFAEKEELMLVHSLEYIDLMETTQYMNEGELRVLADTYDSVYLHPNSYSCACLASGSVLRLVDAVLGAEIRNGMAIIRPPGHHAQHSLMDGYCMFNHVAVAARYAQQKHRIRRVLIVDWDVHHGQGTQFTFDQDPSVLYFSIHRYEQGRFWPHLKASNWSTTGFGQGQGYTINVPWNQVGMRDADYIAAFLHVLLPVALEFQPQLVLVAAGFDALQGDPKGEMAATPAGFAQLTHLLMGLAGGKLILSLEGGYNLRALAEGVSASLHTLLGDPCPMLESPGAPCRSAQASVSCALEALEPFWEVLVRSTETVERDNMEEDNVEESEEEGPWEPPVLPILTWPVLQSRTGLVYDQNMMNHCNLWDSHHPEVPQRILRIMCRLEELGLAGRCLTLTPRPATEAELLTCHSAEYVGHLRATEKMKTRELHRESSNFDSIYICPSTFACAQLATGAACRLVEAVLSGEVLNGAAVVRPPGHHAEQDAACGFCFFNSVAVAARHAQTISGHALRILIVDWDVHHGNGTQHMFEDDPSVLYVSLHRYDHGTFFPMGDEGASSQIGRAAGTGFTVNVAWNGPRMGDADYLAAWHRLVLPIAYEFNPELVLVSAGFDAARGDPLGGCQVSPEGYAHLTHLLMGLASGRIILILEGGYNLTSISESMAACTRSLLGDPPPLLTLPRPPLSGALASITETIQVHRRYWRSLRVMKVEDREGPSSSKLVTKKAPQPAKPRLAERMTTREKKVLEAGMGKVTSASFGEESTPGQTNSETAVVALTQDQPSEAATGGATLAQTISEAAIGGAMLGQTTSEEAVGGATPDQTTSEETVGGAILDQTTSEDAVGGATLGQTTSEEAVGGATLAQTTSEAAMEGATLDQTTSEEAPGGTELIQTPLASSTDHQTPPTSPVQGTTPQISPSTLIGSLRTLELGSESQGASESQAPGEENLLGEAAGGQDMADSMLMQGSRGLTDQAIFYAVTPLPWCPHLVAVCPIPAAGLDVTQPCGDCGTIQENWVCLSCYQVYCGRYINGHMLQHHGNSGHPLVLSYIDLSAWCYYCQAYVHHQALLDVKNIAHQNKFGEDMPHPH
Assay: HDAC6 enzyme inhibitory assay (HDAC-Glo I/II Assay kit)
Assay type: biochemical
Settings: wells without enzyme = 100% inhibition; for inhibition at 10 µM: read-out: HDAC6 inhibitory rate (%) (10 μM)
How it was run: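 Full-length GST-purified HDAC6 from Sf-9 cells preincubated with compound 60 min at room temperature in Tris-HCl pH 7.5 buffer with MgCl2, KCl, NaCl, glutathione, Tween-20. Substrate-developer reaction 20 min, luminescence read; no-enzyme wells set as 100% inhibition.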

Structure (SMILES)	inhibition at 10 µM [%]	further results
O=C1c2cc(-c3nnc(C(F)F)o3)ccc2CN1[C@H](C1CCOCC1)[C@@H](O)c1ccc(F)c(F)c1 (single isomer, unassigned) [Example 88, 6-[5-(difluoromethyl)-1,3,4-oxadiazol-2-yl]-2-[(1R*,2S*)-2-(3,4-difluorophenyl)-2-hydroxy-1-(oxan-4-yl)ethyl]-2,3-dihydro-1H-isoindol-1-one]	–	HDAC6 inhibitory rate (%) (10 μM) (10 µM): 99%
O=C1c2cc(-c3nnc(C(F)F)o3)ccc2CN1[C@H](c1ccccn1)[C@H](O)c1ccccc1 (racemic) [Example 143, 6-[5-(difluoromethyl)-1,3,4-oxadiazol-2-yl]-2-[(1RS,2RS)-2-hydroxy-2-phenyl-1-(pyridin-2-yl)ethyl]-2,3-dihydro-1H-isoindol-1-one]	100	–
O=C1c2cc(-c3nnc(C(F)F)o3)ccc2CN1[C@H](c1ccccn1)[C@@H](O)c1cccc(C(F)(F)F)n1 (single isomer, unassigned) [Example 120, 6-[5-(difluoromethyl)-1,3,4-oxadiazol-2-yl]-2-{(1R*,2R*)-2-hydroxy-1-(pyridin-2-yl)-2-[6-(trifluoromethyl)pyridin-2-yl]ethyl}-2,3-dihydro-1H-isoindol-1-one]	–	HDAC6 inhibitory rate (%) (10 μM): 101%
O=C1c2cc(-c3nnc(C(F)F)o3)ccc2CN1[C@H](c1ccccn1)[C@@H](O)c1ccccc1 (single isomer, unassigned) [Example 102, 6-[5-(difluoromethyl)-1,3,4-oxadiazol-2-yl]-2-[(1R*,2S*)-2-hydroxy-2-phenyl-1-(pyridin-2-yl)ethyl]-2,3-dihydro-1H-isoindol-1-one]	100	–
O=C1c2cc(-c3nnc(C(F)F)o3)ccc2CN1[C@H](c1ccccn1)[C@@H](O)c1ccc(F)cc1 (single isomer, unassigned) [Example 36, 6-[5-(difluoromethyl)-1,3,4-oxadiazol-2-yl]-2-[(1R*,2S*)-2-(4-fluorophenyl)-2-hydroxy-1-(pyridin-2-yl)ethyl]-2,3-dihydro-1H-isoindol-1-one]	101	–
O=C1c2cc(-c3nnc(C(F)F)o3)ccc2CN1[C@H](c1cccc(F)c1)[C@@H](O)c1ccccc1 (racemic) [Example 20, 6-[5-(difluoromethyl)-1,3,4-oxadiazol-2-yl]-2-[(1RS,2SR)-1-(3-fluorophenyl)-2-hydroxy-2-phenylethyl]-2,3-dihydro-1H-isoindol-1-one]	100	–
O=C1c2cc(-c3nnc(C(F)F)o3)ccc2CN1[C@H](C1CCOCC1)[C@@H](O)c1ccc(Cl)cc1 (single isomer, unassigned) [Example 84, 2-[(1R*,2S*)-2-(4-chlorophenyl)-2-hydroxy-1-(oxan-4-yl)ethyl]-6-[5-(difluoromethyl)-1,3,4-oxadiazol-2-yl]-2,3-dihydro-1H-isoindol-1-one]	–	HDAC6 inhibitory rate (%) (10 μM) (10 µM): 100%
O=C1c2cc(-c3nnc(C(F)F)o3)ccc2CN1[C@H](c1ccccn1)[C@@H](O)c1cccc(F)c1 (single isomer, unassigned) [Example 61, 6-[5-(difluoromethyl)-1,3,4-oxadiazol-2-yl]-2-[(1R*,2S*)-2-(3-fluorophenyl)-2-hydroxy-1-(pyridin-2-yl)ethyl]-2,3-dihydro-1H-isoindol-1-one]	100	–
O=C1c2cc(-c3nnc(C(F)F)o3)ccc2CN1[C@@H](c1ccc(F)cc1)[C@@H](O)c1ccccc1 (racemic) [Example 138, 6-[5-(difluoromethyl)-1,3,4-oxadiazol-2-yl]-2-[(1SR,2SR)-1-(4-fluorophenyl)-2-hydroxy-2-phenylethyl]-2,3-dihydro-1H-isoindol-1-one]	99	–
O=C1c2cc(-c3nnc(C(F)F)o3)ccc2CN1[C@H](c1cccc(F)n1)[C@@H](O)c1ccccn1 (single isomer, unassigned) [Example 76, 6-[5-(difluoromethyl)-1,3,4-oxadiazol-2-yl]-2-[(1R*,2R*)-1-(6-fluoropyridin-2-yl)-2-hydroxy-2-(pyridin-2-yl)ethyl]-2,3-dihydro-1H-isoindol-1-one]	–	HDAC6 inhibitory rate (%) (10 μM) (10 µM): 100%
O=C1c2cc(-c3nnc(C(F)F)o3)ccc2CN1[C@H](c1ccccn1)[C@@H](O)c1cccc(C(F)(F)F)n1 (single isomer, unassigned) [Example 119, 6-[5-(difluoromethyl)-1,3,4-oxadiazol-2-yl]-2-{(1R*,2R*)-2-hydroxy-1-(pyridin-2-yl)-2-[6-(trifluoromethyl)pyridin-2-yl]ethyl}-2,3-dihydro-1H-isoindol-1-one]	101	–
O=C1c2cc(-c3nnc(C(F)F)o3)ccc2CN1[C@H](C1CC1)[C@@H](O)c1cccc(F)c1 [Example 10, 2-[(1R,2S)-1-cyclopropyl-2-(3-fluorophenyl)-2-hydroxyethyl]-6-[5-(difluoromethyl)-1,3,4-oxadiazol-2-yl]-2,3-dihydro-1H-isoindol-1-one]	100	–

Second part, led by results:

inhibition at 10 µM [%]	Structure (SMILES)	further results
99	O=C1c2cc(-c3nnc(C(F)F)o3)ccc2CN1[C@H](c1cnccn1)[C@@H](O)c1ccccc1 (single isomer, unassigned) [Example 127, 6-[5-(difluoromethyl)-1,3,4-oxadiazol-2-yl]-2-[(1R*,2S*)-2-hydroxy-2-phenyl-1-(pyrazin-2-yl)ethyl]-2,3-dihydro-1H-isoindol-1-one]	–
100	O=C1c2cc(-c3nnc(C(F)F)o3)ccc2CN1[C@H](c1cnccn1)[C@@H](O)c1ccc(F)c(F)c1 (single isomer, unassigned) [Example 85, 6-[5-(difluoromethyl)-1,3,4-oxadiazol-2-yl]-2-[(1R*,2S*)-2-(3,4-difluorophenyl)-2-hydroxy-1-(pyrazin-2-yl)ethyl]-2,3-dihydro-1H-isoindol-1-one]	–
99	O=C1c2cc(-c3nnc(C(F)F)o3)ccc2CN1[C@H](c1ccc(F)cc1F)[C@@H](O)c1ccc(F)cc1 (single isomer, unassigned) [Example 32, 6-[5-(difluoromethyl)-1,3,4-oxadiazol-2-yl]-2-[(1R*,2S*)-1-(2,4-difluorophenyl)-2-(4-fluorophenyl)-2-hydroxyethyl]-2,3-dihydro-1H-isoindol-1-one]	–
101	O=C1c2cc(-c3nnc(C(F)F)o3)ccc2CN1[C@H](c1ccccn1)[C@@H](O)c1cc(Cl)ccn1 (single isomer, unassigned) [Example 123, 2-[(1R*,2R*)-2-(4-chloropyridin-2-yl)-2-hydroxy-1-(pyridin-2-yl)ethyl]-6-[5-(difluoromethyl)-1,3,4-oxadiazol-2-yl]-2,3-dihydro-1H-isoindol-1-one]	–
100	O=C1c2cc(-c3nnc(C(F)F)o3)ccc2CN1[C@H](c1cnccn1)[C@@H](O)c1cccc(Cl)c1 (single isomer, unassigned) [Example 91, 2-[(1R*,2S*)-2-(3-chlorophenyl)-2-hydroxy-1-(pyrazin-2-yl)ethyl]-6-[5-(difluoromethyl)-1,3,4-oxadiazol-2-yl]-2,3-dihydro-1H-isoindol-1-one]	–
97	O=C1c2cc(-c3nnc(C(F)F)o3)ccc2CN1[C@H](c1ccc(F)cc1F)[C@@H](O)c1ccccn1 (racemic) [Example 31, 6-[5-(difluoromethyl)-1,3,4-oxadiazol-2-yl]-2-[(1RS,2RS)-1-(2,4-difluorophenyl)-2-hydroxy-2-(pyridin-2-yl)ethyl]-2,3-dihydro-1H-isoindol-1-one]	–
